Tests used:
[1] = test system: B16F10 metastatic foci (lung, liver, lymph node); experiment: In vivo distribution and PET imaging in lung/liver metastatic model mice; parameters: species or system C57BL/6 mice; details: 60 minutes from administering, lung metastasis model animal
Procedure: In order to examine the in vivo distribution and dynamics of [^18F]DMFB in lung/liver metastatic animal model, the present inventors divided C57BL/6 mice into two groups, one were injected with 1×10^5 cells of B16F10 cell line into the tail vein and the other were not injected with the tumor cells. After 14 days from the tumor cell inoculation, 7.4 MBq of [^18F]DMFB was injected into lung metastatic model mice and normal mice via tail vein, respectively and visualized at 60 min. Likewise, liver metastatic mice prepared by injecting 1×10^5 cells of B16F10 cell line into the tale vein were injected with 7.4 MBq of [^18F]DMFB into the tail vein. After 60 minutes of the administration, micro PET image was obtained. This liver metastatic model mice were produced among mice survived after a certain time after the induction of lung metastasis. Mice survived after the induction lung metastasis have metastasized to the lymph nodes and other organs after time elapse. […] After obtaining the images, the metastatic model mice and normal mice were sacrificed and lung and liver were excised and uptake ratio of the excised lung and liver were measured by a gamma counter. The results were corrected by organ weight and expressed as a percentage of injections per gram of tissue (% ID/g). […]

[2] = In vitro stability test in human serum; format: in vitro ADME; details: 1.0 ml human serum, 37° C., 2 hours, ITLC-sg / radio TLC
Procedure: For in vitro stability test, 0.74 MBq/100 μl of [^18F] DMFB was dissolved in 1.0 ml human serum and then evaluated at 37° C. for 2 hours. The structural stability was measured by ITLC-sg. ITLC-sg (1×10 cm) was developed using MC:MeOH=10:1. The results were confirmed by radio TLC.

[3] = test system: B16F10 melanoma cells; experiment: Melanoma cell uptake ratio experiment; format: cell-based, mouse
Procedure: B16F10 cell line, a mouse malignant melanoma cell line, was cultured in 5% CO2 in DMEM medium. Twenty-four hours prior to the experiment, cells were plated at 5×10^5 cells/well in 12-well plates and treated with 0.275 mM L-tyrosine-supplemented medium and non-supplemented medium, respectively. Then the cells were treated with 0.74 MBq of [18F]DMFB and incubated at 37° C. for 10, 30, and 60 min, respectively. After washing with PBS twice, the cells were treated with trypsin and the degree of [^18F]DMFB in the cell culture medium and cells in each time group was measured with a gamma counter, respectively. Three experiments were performed for each time group, and the results were expressed as percentage of the amount absorbed by cells versus the amount treated into the plate.

[4] = test system: B16F10 cell line tumor; experiment: Body distribution in small animal model of tumor transplantation; format: in vivo, nude mice
Procedure: (§1) In order to confirm the in vivo distribution of [^18F]DMFB, experiments were performed on nude mice whose tumor was grown to 100 to 150 mm^3 after about 10 days of injection of the B16F10 cell line into the right shoulder region. [^18F]DMFB was injected into the tail vein of the tumor-bearing mice at a dose of 7.4 MBq and sacrificed at 10, 30, 60, and 120 minutes, respectively to excise tumor tissue, blood and organs, and distribution of the radioactive compound was confirmed. The excised organs were measured by the gamma counter in each of the organs including blood, heart, lung, liver, spleen, stomach, intestine, kidney, pancreas, normal muscle, bone, brain, skin and eyes. The results were corrected by organ weight and expressed as a percentage of injections per gram of tissue (% ID/g).
as §1, with “In addition, in” for “In”, “[^18F]DMPY2 prepared in the example 3-2,” for “[^18F]DMFB,”, “tumors were” for “tumor was”, “[^18F]DMPY2” for “[^18F]DMFB”, “30,” for “30, 60,”, “60” for “120”

[5] = test system: B16F10 cell line tumor; experiment: Micro PET imaging using xenograft tumor mouse model; format: in vivo, nude mouse; details: for signals in other organs (micro PET): 1 hour / 60 min after injection
Procedure: To confirm the in vivo dynamics of [^18F]DMFB, B16F10 cell line was injected into the right shoulder region, and about 10 days later, micro PET was performed using a nude mouse bearing tumor ranging in size of 100-150 mm^3. The nude mice were anesthetized with Isoflurane inhalation and then injected with 7.4 MBq of [^18F]DMFB into the tail vein. Static micro PET images were obtained at 10, 30, and 60 minutes after injection of the radioactive compound. Tumor uptake was determined and the images were reconstructed using 3D-ordered subset expectation maximization (3D-OSEM).
In addition, the in vivo dynamics of [^18F] DMPY2 was also analyzed by the same method as described above except that micro PET images were taken at 30 and 60 minutes after injection.

[6] = Melanin binding assay
Procedure: 0.74 MBq of [^18F] DMFB was reacted with 2 mg of melanin and 10 ml of distilled water for 10, 30, 60, and 120 minutes at 37° C. with stirring. Then, centrifugation was performed at 16,800 rpm for 10 minutes, and […] of the supernatant was measured with a gamma counter. Percentages (%) of [^18F]DMFB bound to melanin were calculated based on the mixture of [^18F]DMFB and distilled water alone without melanin.

[7] = test system: melanoma; details: cited from earlier work; for detection rate for melanoma: melanoma patients
[8] = test system: B16F10 xenograft tumor; experiment: Comparison of [^18F]DMPY2 and [^18F]FDG, micro PET in melanoma xenograft model mice; format: in vivo; details: 1 hour after injection, 7.4 MBq
Procedure: (§2) The present inventors compared the imaging capabilities for melanoma and lung metastasis of the melanoma of [^18F]DMPY2 according to one embodiment of the present invention with the [^18F]FDG which has been used as a PET contrast agent for diagnosing cancer previously.
Particularly, melanoma xenograft model mice were prepared in the same manner as in Experimental Example 5, and then 7.4 MBq of [^18F]DMPY2 and [^18F]FDG were injected respectively, and systemic micro PET images were obtained at 1 hour after the injection.

[9] = test system: lung metastasis of melanoma; experiment: Comparison of [^18F]DMPY2 and [^18F]FDG, micro PET in lung metastasis model mice; format: in vivo; details: 1 hour after injection, 7.4 MBq
Procedure: as §2
In addition, after lung metastasis model mice were prepared in the same manner as in Experimental Example 6, 7.4 MBq of [^18F]DMPY2 and [^18F]FDG were injected, respectively, and systemic micro PET images were obtained at 1 hour after the injection.

[10] = with time after injection (10, 30, 60 minutes)

## CN(C)CCNC(=O)c1ccc([18F])cc1 [[^18F]DMFB, N-(2-(dimethylamino)ethyl)-4-[^18F]fluorobenzamide]
[1]
  detection of lung metastatic cancer (micro PET): possible to detect a lung metastatic cancer
[2]
  structural stability in human serum: very stable even after 2 hours
[3]; L-tyrosine not treated
  uptake in B16F10 melanoma cells: hardly absorbed
[3]; medium supplemented with tyrosine (0.275 mM L-tyrosine), 10 to 60 minutes
  uptake in B16F10 melanoma cells: significantly increased
[4]; 10 minutes after injection, 7.4 MBq tail vein
  radioactivity in internal organs (blood, heart, liver, lung, kidney): strong radioactivity was detected
[4]; 1 hour after injection
  absorption ratio in stomach, liver, and kidney: relatively low
  absorption ratio in tumor tissues: highest
[4]; elapsed time of 2 hours
  radioactivity in the tumor tissue: maintained
  radioactivity in the visceral organs: hardly detected
[5]
  signals in other organs (micro PET): maintaining signal in other organs
[5]; [10]
  radiation in the tumor tissue (micro PET): maintained
  radioactivity in the liver (micro PET): decreased with time
[6]; 2 mg melanin, 37° C., 10 to 120 minutes
  binding rate to melanin: ≥ 85%
[6]; after 120 minutes
  change of melanin binding rate over time: did not significantly decrease

## [11CH3]SCC[C@H](N)C(=O)O [^11C-methionine, L-[methyl-^11C]methionien]
[7]
  detection rate for melanoma: extremely low

## Cc1cn([C@H]2C[C@H]([18F])[C@@H](CO)O2)c(=O)[nH]c1=O [^18F-FLT, 3′-^18F-fluoro-3′-deoxy-L-thymidine]
[7]
  detection rate for melanoma: extremely low

## O=C[C@H]([18F])[C@@H](O)[C@H](O)[C@H](O)CO [[^18F]FDG, F-18-fluoro-deoxyglucose, reference compound]
[8]
  background noise (micro PET): background noise was widespread throughout the whole body
  signal in tumor tissue (micro PET): showed a signal in the tumor tissue
[7]; lung, liver, and brain
  identification of metastatic foci with less than 1 cm in diameter: failed to identify
[9]
  signals / noise in other organs (micro PET): stronger than the lungs
  suitability for diagnosing lung metastasis of melanoma: unsuitable

## N[C@@H](Cc1cc(O)c(O)cc1[18F])C(=O)O [^18F-DOPA, 6-^18F-Fluoro-L-dihydroxyphenylalanine]
[7]
  detection rate for melanoma: extremely low

## CN(C)CCNC(=O)c1ccc([18F])cn1 [[^18F]DMPY2]
[8]
  signal in tumor tissue (micro PET): clear signal only in tumor tissue
  signal to noise ratio (micro PET): very high
[4]; 1 hour after injection
  absorption ratio in tumor tissues: accumulated most in tumor tissue
[4]; over time to 1 hour after injection
  signal in other organs such as kidney: rapidly decreased
[5]
  signals in other organs (micro PET): very weak
[5]; 1 hour after injection
  signal in melanoma tumor tissue (micro PET): clearly observed
[9]
  signal in the metastatic lung (micro PET): very strong signal
  signals / noise in other organs (micro PET): little or no noise in other organs except bladder

Source: patent US11504439B2, “Radioactive compound for diagnosis of malignant melanoma and use thereof” (INDUSTRY FOUNDATION OF CHONNAM NATIONAL UNIVERSITY, priority 2017, dated 2022)
